Assay results taken from ChEMBL document CHEMBL5506008, “Synthesis and biological evaluation of 1-phenyl-tetrahydro-β-carboline-based first dual PRMT5/EGFR inhibitors as potential anticancer agents” (Eur J Med Chem, 2024).
Calls of active or inactive are those of the source. The rule behind the calls is not given here.

Experiments:
MCF7 [1] = assay: Induction of cell cycle arrest in human MCF7 cells assessed as accumulation of cells at G1 phase at 3.75 uM incubated for 48 hrs by PI/RNase staining based flow cytometry analysis (reference value: 48.01%); type: functional
[2] = Cmax in male Sprague-Dawley rat at 2 mg/kg, iv administered via tail vein by LC-MS/MS analysis; type: ADME, organism-based; details: in vivo
MCF7 [3] = assay: Induction of cell cycle arrest in human MCF7 cells assessed as accumulation of cells at G2 phase at 3.75 uM incubated for 48 hrs by PI/Rnase staining based flow cytometry analysis (reference value: […]%); type: functional
MCF7 [4] = assay: Induction of apoptosis in human MCF7 cells assessed as dead cells at 15 uM measured after 48 hrs by Annexin V-FITC staining based flow cytometry analysis (reference value: 0.02%); type: functional
A549 = assay: Antiproliferative activity against human A549 cells assessed as inhibition of cell growth by CCK-8 assay
HeLa = assay: Antiproliferative activity against human HeLa cells assessed as inhibition of cell growth by CCK-8 assay
[5] = Cmax in male Sprague-Dawley rat at 10 mg/kg, po administered as single dose by LC-MS/MS analysis; type: ADME, organism-based; details: in vivo
MCF7 [6] = assay: Induction of apoptosis in human MCF7 cells assessed as early apoptotic cells at 7.5 uM measured after 48 hrs by Annexin V-FITC staining based flow cytometry analysis (reference value: 0.58%); type: functional
MCF7 [7] = assay: Antitumor activity against orthotopic human MCF7 cells xenografted in CB17SCID mouse assessed as inhibition of tumor growth at 10 to 20 mg/kg, po qd administered once daily for 21 days starting from 3 days post tumor inoculation and measured every day by calipers method; type: functional, organism-based; details: dose 10-20 mg/kg, time 21.0 day
MCF7 [8] = assay: Induction of apoptosis in human MCF7 cells assessed as early apoptotic cells at 15 uM measured after 48 hrs by Annexin V-FITC staining based flow cytometry analysis (reference value: 0.58%); type: functional
MCF7 [9] = assay: Induction of apoptosis in human MCF7 cells assessed as late apoptotic cells at 3.75 uM measured after 48 hrs by Annexin V-FITC staining based flow cytometry analysis (reference value: 0.14%); type: functional
[10] = biological target: T1, Protein arginine N-methyltransferase 5 (Homo sapiens, UniProt O14744); assay: Inhibition of PRMT5 in human MCF7 cells using SmD3 as substrate assessed as reduction in symmetric arginine dimethylation by measuring reduction in SmD3me2 level incubated for 72 hrs by Western blot analysis; type: cell-based; details: dose 3.75-15 µM
T1 sequence (O14744 whole entry): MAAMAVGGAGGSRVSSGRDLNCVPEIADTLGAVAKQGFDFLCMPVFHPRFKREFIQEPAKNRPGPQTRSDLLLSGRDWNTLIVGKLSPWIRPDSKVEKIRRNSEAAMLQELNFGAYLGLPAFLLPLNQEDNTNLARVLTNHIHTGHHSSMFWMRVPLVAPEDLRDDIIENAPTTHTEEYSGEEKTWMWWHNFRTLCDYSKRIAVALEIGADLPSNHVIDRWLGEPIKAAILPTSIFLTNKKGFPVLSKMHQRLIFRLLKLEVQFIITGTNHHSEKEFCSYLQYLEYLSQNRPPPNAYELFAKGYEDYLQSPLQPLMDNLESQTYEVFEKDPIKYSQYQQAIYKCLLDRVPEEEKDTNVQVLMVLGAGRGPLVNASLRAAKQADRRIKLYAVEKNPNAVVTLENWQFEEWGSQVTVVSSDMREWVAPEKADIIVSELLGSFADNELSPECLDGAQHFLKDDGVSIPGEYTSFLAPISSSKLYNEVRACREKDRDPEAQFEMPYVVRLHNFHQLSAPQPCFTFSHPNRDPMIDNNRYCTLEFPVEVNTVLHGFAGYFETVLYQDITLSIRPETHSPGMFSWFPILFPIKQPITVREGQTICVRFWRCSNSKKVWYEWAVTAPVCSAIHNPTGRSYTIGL

[11] = AUC (0 to 24 hrs) in male Sprague-Dawley rat at 2 mg/kg, iv administered via tail vein by LC-MS/MS analysis; type: ADME, organism-based; details: in vivo
MCF7 [12] = assay: Induction of cell cycle arrest in human MCF7 cells assessed as accumulation of cells at G1 phase at 7.5 uM incubated for 48 hrs by PI/RNase staining based flow cytometry analysis (reference value: 48.01%); type: functional
MCF7 [13] = assay: Induction of cell cycle arrest in human MCF7 cells assessed as accumulation of cells at G2 phase at 7.5 uM incubated for 48 hrs by PI/Rnase staining based flow cytometry analysis (reference value: […]%); type: functional
MCF7 [14] = assay: Induction of apoptosis in human MCF7 cells assessed as dead cells at 7.5 uM measured after 48 hrs by Annexin V-FITC staining based flow cytometry analysis (reference value: 0.02%); type: functional
MCF7 [15] = assay: Induction of apoptosis in human MCF7 cells assessed as dead cells at 3.75 uM measured after 48 hrs by Annexin V-FITC staining based flow cytometry analysis (reference value: 0.02%); type: functional
[16] = Volume of distribution in male Sprague-Dawley rat at 10 mg/kg, po administered as single dose by LC-MS/MS analysis; type: ADME, organism-based; details: in vivo
MCF7 [17] = assay: Induction of apoptosis in human MCF7 cells assessed as late apoptotic cells at 15 uM measured after 48 hrs by Annexin V-FITC staining based flow cytometry analysis (reference value: 0.14%); type: functional
[18] = Half life in male Sprague-Dawley rat at 10 mg/kg, po administered as single dose by LC-MS/MS analysis; type: ADME, organism-based; details: in vivo
[19] = Bioavailability in male Sprague-Dawley rat at 2 mg/kg, iv administered via tail vein by LC-MS/MS analysis; type: ADME, organism-based; details: in vivo
MCF7 [20] = assay: Antiproliferative activity against human MCF7 cells assessed as inhibition of cell growth by CCK-8 assay
[21] = Clearance in male Sprague-Dawley rat at 2 mg/kg, iv administered via tail vein by LC-MS/MS analysis; type: ADME, organism-based; details: in vivo
[22] = biological target: Protein arginine N-methyltransferase 1 (Homo sapiens, UniProt Q99873); assay: Inhibition of PRMT1 (unknown origin) using [3H]SAM as substrate preincubated for 15 mins followed by substrate addition and measured after 60 mins by microbeta scintillation counting analysis
Sequence of Protein arginine N-methyltransferase 1 (Q99873 whole entry): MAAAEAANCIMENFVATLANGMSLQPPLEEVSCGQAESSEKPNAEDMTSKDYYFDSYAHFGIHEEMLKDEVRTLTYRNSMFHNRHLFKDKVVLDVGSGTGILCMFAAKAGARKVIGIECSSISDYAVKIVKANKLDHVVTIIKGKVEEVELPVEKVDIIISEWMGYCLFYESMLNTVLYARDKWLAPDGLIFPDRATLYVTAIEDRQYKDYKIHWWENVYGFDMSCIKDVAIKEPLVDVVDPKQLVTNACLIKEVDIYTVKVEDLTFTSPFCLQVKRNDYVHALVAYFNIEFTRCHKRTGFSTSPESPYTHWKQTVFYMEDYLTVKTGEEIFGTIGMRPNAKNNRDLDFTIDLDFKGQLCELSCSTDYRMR

[23] = Volume of distribution in male Sprague-Dawley rat at 2 mg/kg, iv administered via tail vein by LC-MS/MS analysis; type: ADME, organism-based; details: in vivo
MDA-MB-231 = assay: Antiproliferative activity against human MDA-MB-231 cells assessed as inhibition of cell growth by CCK-8 assay
MCF7 [24] = assay: Induction of apoptosis in human MCF7 cells assessed as late apoptotic cells at 7.5 uM measured after 48 hrs by Annexin V-FITC staining based flow cytometry analysis (reference value: 0.14%); type: functional
[25] = Half life in male Sprague-Dawley rat at 2 mg/kg, iv administered via tail vein by LC-MS/MS analysis; type: ADME, organism-based; details: in vivo
MCF7 [26] = assay: Induction of apoptosis in human MCF7 cells assessed as live cells at 3.75 uM measured after 48 hrs by Annexin V-FITC staining based flow cytometry analysis (reference value: 99.26%); type: functional
MCF7 [27] = assay: Induction of apoptosis in human MCF7 cells assessed as early apoptotic cells at 3.75 uM measured after 48 hrs by Annexin V-FITC staining based flow cytometry analysis (reference value: 0.58%); type: functional
[28] = Tmax in male Sprague-Dawley rat at 10 mg/kg, po administered as single dose by LC-MS/MS analysis; type: ADME, organism-based; details: in vivo
[29] = Metabolic stability in human liver microsomes assessed as compound remaining at […] measured after 30 mins in presence of NADPH by LC-MS/MS analysis; type: ADME, Microsome; details: read-out: Stability
HepG2 = assay: Antiproliferative activity against human HepG2 cells assessed as inhibition of cell growth by CCK-8 assay
[30] = AUC (0 to 24 hrs) in male Sprague-Dawley rat at 10 mg/kg, po administered as single dose by LC-MS/MS analysis; type: ADME, organism-based; details: in vivo
MCF7 [31] = assay: Induction of apoptosis in human MCF7 cells assessed as live cells at 15 uM measured after 48 hrs by Annexin V-FITC staining based flow cytometry analysis (reference value: 99.26%); type: functional
[32] = AUC (0 to infinity) in male Sprague-Dawley rat at 2 mg/kg, iv administered via tail vein by LC-MS/MS analysis; type: ADME, organism-based; details: in vivo
[33] = biological target: T1, Protein arginine N-methyltransferase 5; assay: Inhibition of PRMT5 (unknown origin) by radiometric-based scintillation proximity assay
[34] = biological target: Receptor tyrosine-protein kinase erbB-4 (Homo sapiens, UniProt Q15303); assay: Inhibition of wild type GST-tagged HER4 catalytic domain (unknown origin) expressed in insect cells using poly(Glu-Tyr) as substrate incubated for 6 mins by ELISA; design: species or system Insect cell
Sequence of Receptor tyrosine-protein kinase erbB-4 (Q15303 whole entry, the tested form may be a part): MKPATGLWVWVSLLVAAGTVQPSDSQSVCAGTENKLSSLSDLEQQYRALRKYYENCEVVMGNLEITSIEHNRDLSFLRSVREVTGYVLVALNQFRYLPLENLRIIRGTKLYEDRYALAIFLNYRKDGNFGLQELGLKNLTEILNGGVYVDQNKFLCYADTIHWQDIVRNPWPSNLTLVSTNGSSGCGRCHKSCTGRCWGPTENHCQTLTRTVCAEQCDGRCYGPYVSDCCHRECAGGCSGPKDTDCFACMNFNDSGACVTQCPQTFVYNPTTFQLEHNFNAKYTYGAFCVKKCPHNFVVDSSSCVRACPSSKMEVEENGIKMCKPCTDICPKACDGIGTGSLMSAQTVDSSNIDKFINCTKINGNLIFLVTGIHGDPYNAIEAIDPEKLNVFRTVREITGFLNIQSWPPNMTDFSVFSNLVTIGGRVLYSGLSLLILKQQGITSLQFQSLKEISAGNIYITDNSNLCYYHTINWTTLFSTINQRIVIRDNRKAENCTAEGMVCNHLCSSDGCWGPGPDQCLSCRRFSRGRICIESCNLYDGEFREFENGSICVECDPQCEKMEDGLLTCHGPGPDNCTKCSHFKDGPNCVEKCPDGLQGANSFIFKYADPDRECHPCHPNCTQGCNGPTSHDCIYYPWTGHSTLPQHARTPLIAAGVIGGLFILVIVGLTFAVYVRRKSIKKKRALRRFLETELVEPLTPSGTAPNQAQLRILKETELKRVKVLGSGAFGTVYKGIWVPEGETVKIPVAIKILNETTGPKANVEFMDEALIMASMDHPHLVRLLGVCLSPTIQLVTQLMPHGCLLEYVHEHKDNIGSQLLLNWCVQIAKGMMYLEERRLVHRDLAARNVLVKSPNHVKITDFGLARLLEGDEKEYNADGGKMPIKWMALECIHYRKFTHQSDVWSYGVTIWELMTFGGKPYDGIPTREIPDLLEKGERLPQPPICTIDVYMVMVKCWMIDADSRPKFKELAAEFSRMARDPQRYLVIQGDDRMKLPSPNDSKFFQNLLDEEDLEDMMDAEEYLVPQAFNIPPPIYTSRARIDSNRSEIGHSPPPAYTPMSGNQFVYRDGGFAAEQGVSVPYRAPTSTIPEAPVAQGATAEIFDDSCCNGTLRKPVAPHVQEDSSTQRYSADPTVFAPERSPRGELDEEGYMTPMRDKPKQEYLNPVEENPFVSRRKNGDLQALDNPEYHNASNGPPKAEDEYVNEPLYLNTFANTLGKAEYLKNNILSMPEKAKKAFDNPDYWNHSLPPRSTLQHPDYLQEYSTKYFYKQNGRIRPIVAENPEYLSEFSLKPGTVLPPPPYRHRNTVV

MCF7 [35] = assay: Induction of cell cycle arrest in human MCF7 cells assessed as accumulation of cells at S phase at 7.5 uM incubated for 48 hrs by PI/RNase staining based flow cytometry analysis (reference value: 44.87%); type: functional
MCF7 [36] = assay: Induction of cell cycle arrest in human MCF7 cells assessed as accumulation of cells at S phase at 3.75 uM incubated for 48 hrs by PI/RNase staining based flow cytometry analysis (reference value: 44.87%); type: functional
[37] = Metabolic stability in rat liver microsomes assessed as compound remaining at […] measured after 30 mins in presence of NADPH by LC-MS/MS analysis; type: ADME, Microsome; details: read-out: Stability
MCF7 [38] = assay: Induction of apoptosis in human MCF7 cells assessed as live cells at 7.5 uM measured after 48 hrs by Annexin V-FITC staining based flow cytometry analysis (reference value: 99.26%); type: functional
[39] = Clearance in male Sprague-Dawley rat at 10 mg/kg, po administered as single dose by LC-MS/MS analysis; type: ADME, organism-based; details: in vivo
[40] = AUC (0 to infinity) in male Sprague-Dawley rat at 10 mg/kg, po administered as single dose by LC-MS/MS analysis; type: ADME, organism-based; details: in vivo
[41] = Oral bioavailability in male Sprague-Dawley rat at 10 mg/kg administered as single dose by LC-MS/MS analysis; type: ADME, organism-based; details: in vivo

Molecule `COc1cc(C2NCCc3c2[nH]c2ccccc32)ccc1OCc1cc(C(F)(F)F)cc(C(F)(F)F)c1` (stereo not given) has an Activity (MCF7 [1]) of 54.85%, a Cmax [2] of 187 ng/mL and an Activity (MCF7 [3]) of 4.25%. For the same molecule, the Activity (MCF7 [4]) was 0.01%, the IC50 (A549) was 9.76 µM and the IC50 (HeLa) was 7.99 µM. For the same molecule, the Cmax [5] was 167 ng/mL, the Activity (MCF7 [6]) was 2.32% and the Activity (MCF7 [7]) was “Active”. For the same molecule, the Activity (MCF7 [8]) was 3.07%, the Activity (MCF7 [9]) was 0.4% and the inhibition [10] was “Dose-Dependent Effect”. It also gave an AUC(0-t) [11] of 1280 ng·h/mL, an Activity (MCF7 [12]) of 62.98% and an Activity (MCF7 [13]) of 0.26%. It also gave an Activity (MCF7 [14]) of 0%, an Activity (MCF7 [15]) of 0.02% and a Vd [16] of 38.5 L/kg. It also gave an Activity (MCF7 [17]) of 0.48%, a half-life [18] of 5.7 h and an F [19] of 100%. For the same molecule, the IC50 (MCF7 [20]) was 5.74 µM, the clearance [21] was 25 mL/min/kg and the IC50 [22] was greater than 100 µM. The Vd [23] was 10.8 L/kg, the IC50 (MDA-MB-231) was 6.55 µM and the Activity (MCF7 [24]) was 0.37%. The half-life [25] was 4.9 h, the Activity (MCF7 [26]) was 98.07% and the Activity (MCF7 [27]) was 1.51%. The Tmax [28] was 2 h, the remaining at 0.5 h [29] was 85.9% and the IC50 (HepG2) was 25.4 µM. For the same molecule, the AUC(0-t) [30] was 1960 ng·h/mL, the Activity (MCF7 [31]) was 96.45% and the AUC(0-inf) [32] was 1330 ng·h/mL. It also gave an IC50 [33] of 15.5 µM, an IC50 [34] of 86.5 µM and an Activity (MCF7 [35]) of 36.77%. The Activity (MCF7 [36]) was 40.55%, the remaining at 0.5 h [37] was 80.3% and the Activity (MCF7 [38]) was 97.31%. It also gave a CL/F [39] of 78.3 mL/min/kg, an AUC(0-inf) [40] of 2110 ng·h/mL and a bioavailability [41] of 30.6%.
